Values after ≈ are worked out from the molar mass of the structure shown.
Tests used:
mammalian cells = assay: Cytotoxicity test and cell morphology, different mammalian cells; assay type: cell-based; design: dose or concentration left out as unconfirmed
Procedure: (§1) NIH3T3/GFP fibroblast cell line was kindly provided by Dr. Yun Chen at Johns Hopkins University and cultured in Dulbecco's Modified Eagle's Medium (DMEM; Gibco) supplemented with 10% fetal bovine serum (FBS; Hyclone) and 1% penicillin/streptomycin (Pen/Strep; Gibco). U2OS.EGFP cells were kindly provided by Dr. J Keith Joung at Massachusetts General Hospital and cultured in DMEM supplemented with 10% FBS, 2 mM GlutaMAX (Gibco), and 1% Pen/Strep. MCF10A epithelial cell line was kindly provided by Dr. Konstantinos Konstantopoulos at Johns Hopkins University and cultured in DMEM/F-12 (1:1) supplemented with 5% New Zealand horse serum (Gibco), 20 ng mL^−1 EGF (PeproTech), […] hydrocortisone (Sigma Aldrich), 100 ng mL^−1 cholera toxin (Sigma Aldrich), […] insulin (Gibco), and 1% Pen/Strep. All cells were cultured in a humidified incubator at 5% CO2 and 37° C.
(§2) Cell cytotoxicity was examined by alamarBlue HS Cell Viability Reagent (Invitrogen) according to manufacturer's protocol. Rampersad, 2012; Kumar et al., 2018. […] Absorbance was measured at 570 nm by a SpectraMax microplate reader, with 600 nm as a reference wavelength. The cell viability was calculated by relative absorbance to control groups. […] Cell morphology was monitored throughout the assay and images were acquired with an EVOS cell imaging system (Thermo Fisher).

[1] = Cyclic voltammetry of isoindigos in DMF (half-wave redox potentials under N2 or CO2); assay type: physicochemical; conditions: 2.5 mM in DMF
Procedure: (§3) Electrochemical measurements were conducted using a BioLogic VSP potentiostat (BioLogic Science Instruments). For the cyclic voltammetry measurements, glassy carbon (Ø=3 mm) was used as the working electrode, platinum wire was used as the counter electrode, silver wire was used as the pseudo-reference electrode and ferrocene was used as the internal reference. In a standard cyclic voltammetry measurement, the molecule of interest (2.5 mM) was dissolved in anhydrous DMF with 100 mM NBu4PF6 as the supporting salt. Typical cyclic voltammograms were collected at a scan rate of […]. To study the effects of ionic species on the redox behaviour of the sorbent molecules, 100 mM LiClO4, NaClO4, KClO4, NBu4ClO4, sodium triflate (NaOTf), or sodium bis(trifluoromethanesulfonyl)imide (NaTFSI) was used as the supporting electrolyte salt.

Solubility in DMF = assay type: physicochemical
[2] = CO2 binding constant (KCO2) calculated from the shift of the second reduction peak in CV
Procedure: as §3
The CO2 binding constant (KCO2) was calculated by Eq 1: […]

[3] = UV-vis absorption, optical band gap; assay type: physicochemical; conditions: UV-vis absorption (Kubelka-Munk spectra)
Procedure: UV-vis absorption spectra were recorded on a Thermo Scientific Genesys 10S UV-vis spectrophotometer.

[4] = test system: NIH3T3/GFP mouse fibroblasts; assay: alamarBlue cytotoxicity assay; assay type: cell-based; conditions: concentrations up to 100 µg mL^−1, 48 h
Procedure: as §1, §2

[5] = test system: U2OS.EGFP human osteosarcoma cells; assay: alamarBlue cytotoxicity assay; assay type: cell-based; conditions: concentrations up to 100 µg mL^−1, 48 h
Procedure: as §1, §2

[6] = test system: MCF10A human breast epithelial cells; assay: alamarBlue cytotoxicity assay; assay type: cell-based; design: unit not given here; conditions: 48 h cell culture
Procedure: as §1, §2

Molecule	Biocompatibility compared with unmodified counterpart (mammalian cells; 0.78 to 100, 48 h)	Cell condition in optical microscopic images, compared with IId (mammalian cells; 50, 48 h culture)	E1/2 in N2 (first) ([1]; first half-wave potential vs. Fc^+/Fc, 0.1 M NBu4PF6, N2, 298 K)	E1/2 in N2 (second) ([1]; second half-wave potential vs. Fc^+/Fc, 0.1 M NBu4PF6, N2, 298 K)	E1/2 in CO2 (first or single) ([1]; vs. Fc^+/Fc, 0.1 M NBu4PF6, CO2, 298 K)	Solubility in DMF (Solubility in DMF)	K[CO2] ([2]; DMF, 298 K)	logK[CO2] ([2]; DMF, 298 K)	ΔEpeak(2) ([2]; difference between the second reduction peak potentials (IId·−/IId2−) in CO2 and N2)	Optical band gap [3]	Toxicity [4]	Toxicity [5]	LC50 (lethal concentration that causes 50% cell death) [6]
COC(=O)C(CO)NC(=O)c1ccc2c(c1)NC(=O)/C2=C1/C(=O)Nc2ccccc21 (stereo not shown) [6AIIdSer, Methyl isoindigo-6-carbonylserinate]	much better biocompatibility	cells remained much healthier	−1.18, V	−1.60 V	−1.08 V	830 mM (≈ 338 mg/mL)	2.57e+08 M⁻¹	8.41	0.46 V	2.04 eV			
Methyl isoindigo-6-carbonylserinate [6AIIdSer]											does not display clear toxicity	does not display clear toxicity	89.4
